# Calls of active or inactive are those of the source.
# How the values were obtained:
# Cytochrome P450 1A2 = biological target: T1, Cytochrome P450 1A2 (Homo sapiens, UniProt P05177);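 also: PubChem cytochrome P450 panel assay, CYP1A2 panel member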
# T1 sequence (P05177 whole entry): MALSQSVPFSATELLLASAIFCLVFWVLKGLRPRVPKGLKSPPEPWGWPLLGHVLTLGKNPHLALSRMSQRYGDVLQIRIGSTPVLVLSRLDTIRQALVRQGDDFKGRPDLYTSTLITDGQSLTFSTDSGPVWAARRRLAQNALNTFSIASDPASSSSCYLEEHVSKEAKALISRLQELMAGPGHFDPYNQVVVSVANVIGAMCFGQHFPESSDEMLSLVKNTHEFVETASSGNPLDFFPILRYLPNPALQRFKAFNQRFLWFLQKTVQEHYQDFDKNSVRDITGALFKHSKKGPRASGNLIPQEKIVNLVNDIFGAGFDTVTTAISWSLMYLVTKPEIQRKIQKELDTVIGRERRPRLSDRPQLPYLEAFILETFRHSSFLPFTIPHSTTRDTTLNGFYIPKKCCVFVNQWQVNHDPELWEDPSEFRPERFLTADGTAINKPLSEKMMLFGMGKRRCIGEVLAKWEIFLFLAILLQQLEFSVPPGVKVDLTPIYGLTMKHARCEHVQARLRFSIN
# Cytochrome P450 2C19 = Cytochrome P450 2C19 (Homo sapiens, UniProt P33261); test: Cytochrome panel assay with activity outcomes. Panel member name: p450-cyp2c19 Compounds with AC50 equal or less than 10 uM are considered active; type: functional
# Sequence of Cytochrome P450 2C19 (P33261 whole entry): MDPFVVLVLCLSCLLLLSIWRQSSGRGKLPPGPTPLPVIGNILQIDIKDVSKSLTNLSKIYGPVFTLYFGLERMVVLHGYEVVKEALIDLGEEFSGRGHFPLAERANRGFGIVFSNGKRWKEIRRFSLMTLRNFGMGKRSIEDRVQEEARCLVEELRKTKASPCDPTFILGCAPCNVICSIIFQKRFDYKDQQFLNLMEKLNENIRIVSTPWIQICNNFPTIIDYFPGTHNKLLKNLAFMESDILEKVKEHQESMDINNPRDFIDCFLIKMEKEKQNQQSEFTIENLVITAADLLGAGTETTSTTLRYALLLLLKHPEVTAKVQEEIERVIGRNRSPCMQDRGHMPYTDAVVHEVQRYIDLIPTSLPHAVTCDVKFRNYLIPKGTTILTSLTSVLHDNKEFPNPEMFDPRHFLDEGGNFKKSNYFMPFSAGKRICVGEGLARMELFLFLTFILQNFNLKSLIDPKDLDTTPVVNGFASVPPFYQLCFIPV
# Cytochrome P450 3A4 = Cytochrome P450 3A4 (Homo sapiens, UniProt P08684);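 also: CYP3A4 tested as one member of a cytochrome P450 panel screen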
# Sequence of Cytochrome P450 3A4 (P08684 whole entry): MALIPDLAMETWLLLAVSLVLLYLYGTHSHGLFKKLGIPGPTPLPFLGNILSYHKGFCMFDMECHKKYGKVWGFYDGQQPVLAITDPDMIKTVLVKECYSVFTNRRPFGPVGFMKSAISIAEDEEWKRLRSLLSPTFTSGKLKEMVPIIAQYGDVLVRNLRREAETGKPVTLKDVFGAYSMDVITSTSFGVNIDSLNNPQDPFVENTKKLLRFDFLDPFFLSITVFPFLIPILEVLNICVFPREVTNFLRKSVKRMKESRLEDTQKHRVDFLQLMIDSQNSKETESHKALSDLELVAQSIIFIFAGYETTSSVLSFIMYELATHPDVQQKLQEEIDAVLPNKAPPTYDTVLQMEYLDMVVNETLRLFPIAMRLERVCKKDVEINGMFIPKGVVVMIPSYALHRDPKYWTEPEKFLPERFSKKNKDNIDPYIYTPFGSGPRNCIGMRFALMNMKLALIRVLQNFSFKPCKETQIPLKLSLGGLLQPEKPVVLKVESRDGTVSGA
# Cytochrome P450 2C9 = Cytochrome P450 2C9 (Homo sapiens, UniProt P11712)
# Sequence of Cytochrome P450 2C9 (P11712 whole entry, the tested form may be a part): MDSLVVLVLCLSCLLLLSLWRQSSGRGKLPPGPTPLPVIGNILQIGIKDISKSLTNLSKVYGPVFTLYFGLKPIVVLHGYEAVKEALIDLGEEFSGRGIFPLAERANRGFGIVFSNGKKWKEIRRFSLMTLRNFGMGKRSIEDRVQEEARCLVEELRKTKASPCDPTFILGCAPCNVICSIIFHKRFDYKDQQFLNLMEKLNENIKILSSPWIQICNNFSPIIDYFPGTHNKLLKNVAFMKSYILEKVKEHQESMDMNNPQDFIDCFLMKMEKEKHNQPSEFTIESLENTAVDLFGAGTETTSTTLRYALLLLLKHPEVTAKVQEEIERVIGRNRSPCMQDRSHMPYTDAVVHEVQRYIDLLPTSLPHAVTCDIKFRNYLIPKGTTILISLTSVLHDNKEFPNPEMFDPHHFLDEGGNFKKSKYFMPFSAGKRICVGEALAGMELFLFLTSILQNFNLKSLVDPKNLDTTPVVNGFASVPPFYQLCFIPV
# [1] = biological target: T2, RNA-binding protein pos-1 (Caenorhabditis elegans, UniProt G5EF15); test: inhibitors of POS-1/mex-3 RNA binding, dose response, biochemical, fluorescence polarization (AID 1964);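 also: purified POS-1 fused to maltose binding protein made in E. coli; potency of compounds blocking POS-1 binding to fluorescent RNA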
# T2 sequence (G5EF15 whole entry): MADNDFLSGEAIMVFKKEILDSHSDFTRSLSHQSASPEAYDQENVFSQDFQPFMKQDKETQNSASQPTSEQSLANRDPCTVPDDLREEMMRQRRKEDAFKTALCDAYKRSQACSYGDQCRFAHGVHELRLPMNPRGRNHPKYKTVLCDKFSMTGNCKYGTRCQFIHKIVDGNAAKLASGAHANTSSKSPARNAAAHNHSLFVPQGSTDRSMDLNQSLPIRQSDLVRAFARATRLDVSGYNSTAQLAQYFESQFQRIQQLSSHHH
# [2] = biological target: T3, Zinc finger protein mex-5 (Caenorhabditis elegans, UniProt Q9XUB2); test: MEX-5/TCR-2 RNA interaction inhibitors, dose response, biochemical, C. elegans, fluorescence polarization (AID 1960)
# T3 sequence (Q9XUB2 whole entry): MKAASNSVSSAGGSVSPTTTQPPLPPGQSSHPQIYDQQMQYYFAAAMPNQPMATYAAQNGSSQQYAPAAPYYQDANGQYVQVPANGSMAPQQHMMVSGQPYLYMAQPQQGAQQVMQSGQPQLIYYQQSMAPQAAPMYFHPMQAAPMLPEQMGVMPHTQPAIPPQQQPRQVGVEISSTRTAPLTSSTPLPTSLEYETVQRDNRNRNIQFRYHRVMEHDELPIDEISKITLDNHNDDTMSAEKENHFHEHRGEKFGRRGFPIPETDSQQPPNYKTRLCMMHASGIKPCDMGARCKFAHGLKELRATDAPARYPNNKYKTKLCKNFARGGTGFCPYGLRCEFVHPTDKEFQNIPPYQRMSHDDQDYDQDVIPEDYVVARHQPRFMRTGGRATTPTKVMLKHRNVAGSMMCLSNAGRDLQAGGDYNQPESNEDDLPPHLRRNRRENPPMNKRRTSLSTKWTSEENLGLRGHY
# [3] = biological target: T4, Heat shock factor protein 1 (Mus musculus, UniProt P38532); test: HSF1 potentiators in luciferase reporter cells, confirmation, cell-based, NIH3T3, luminescence, dose retest (AID 435004); type: functional;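 also: stress induced by proteasome inhibitor MG132 added 30 min after compound; luciferase reporter driven by HSF1 response element in NIH3T3 cells; actives raise luminescence as potentiators of the MG132 stress response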
# T4 sequence (P38532 whole entry): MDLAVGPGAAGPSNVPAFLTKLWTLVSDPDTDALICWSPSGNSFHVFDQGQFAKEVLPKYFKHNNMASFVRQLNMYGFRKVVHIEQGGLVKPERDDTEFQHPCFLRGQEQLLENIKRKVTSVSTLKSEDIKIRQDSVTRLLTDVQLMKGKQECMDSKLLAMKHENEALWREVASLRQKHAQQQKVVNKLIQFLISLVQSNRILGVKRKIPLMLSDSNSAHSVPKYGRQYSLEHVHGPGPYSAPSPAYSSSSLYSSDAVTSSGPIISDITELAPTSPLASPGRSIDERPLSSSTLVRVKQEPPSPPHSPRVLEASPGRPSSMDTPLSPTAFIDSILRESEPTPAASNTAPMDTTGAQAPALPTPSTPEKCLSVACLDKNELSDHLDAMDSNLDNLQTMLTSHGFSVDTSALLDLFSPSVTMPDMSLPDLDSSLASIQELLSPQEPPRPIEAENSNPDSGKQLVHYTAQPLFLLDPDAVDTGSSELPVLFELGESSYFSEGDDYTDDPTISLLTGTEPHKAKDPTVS
# H4 = test: Luminescence Cell-Based Dose Response HTS to Identify Activators of 5'UTR Stem-Loop Driven Prion Protein mRNA Translation in H4 Neuroglioblastoma Cells. [Related pubchem assays: 1829 (Project Summary), 1814 (Primary HTS)]; type: functional; settings: Homo sapiens
smiles,measurement,setting,value
O=C(NC1CCCCC1)C(c1cccs1)N(C(=O)C(F)(F)F)c1ccccc1 (stereo unspecified),AC50,Cytochrome P450 1A2,2.51 µM (inconclusive)
Clc1ccccc1-c1cc(NCCN2CCOCC2)ncn1,AC50,Cytochrome P450 2C19; read-out: AC50,25.1 µM (inconclusive)
same,AC50,Cytochrome P450 1A2,31.6 µM (inconclusive)
COCCn1c(=O)c(C)nc2cnc(OC)nc21,AC50,Cytochrome P450 3A4,31.6 µM (inconclusive)
COc1cc(-c2ccc(/N=N\c3ccc4c(S(=O)(=O)O)cc(S(=O)(=O)O)c(N)c4c3O)c(OC)c2)ccc1/N=N\c1ccc2c(S(=O)(=O)O)cc(S(=O)(=O)O)c(N)c2c1O,AC50,Cytochrome P450 3A4,10 µM (inconclusive)
same,AC50,Cytochrome P450 2C9,10 µM (inconclusive)
O=c1c(-c2ccc(F)cc2)nc2cnc(Oc3cccc(Cl)c3)nc2n1C[C@H]1CCCO1,AC50,Cytochrome P450 2C19; read-out: AC50,39.8 µM (inconclusive)
same,AC50,Cytochrome P450 3A4,12.6 µM (inconclusive)
Cc1cc(NC(=O)c2c([N+](=O)[O-])cnn2C)no1,AC50,Cytochrome P450 3A4,25.1 µM (inconclusive)
same,AC50,Cytochrome P450 2C9,39.8 µM (inconclusive)
CC1(OC(=O)c2cnc3ccccc3n2)C(=O)C=C2C=C(c3ccc(C#N)cc3)OC=C2C1=O (stereo unspecified),EC50,[1],39.8 µM (active)
same,EC50,[2],44.9 µM (active)
COC(=O)CCCC1=CC2=CC(=O)C(C)(OC(=O)c3ccc(Cl)nc3)C(=O)C2=CO1 (stereo unspecified),EC50,[1],> 150 µM (not active)
same,EC50,[2],18.8 µM (active)
CC(C)OC(=O)c1ccc(COc2ccc3ccc(=O)oc3c2)o1,EC50,[3],66.6 µM (active)
Cc1ccc(S(=O)(=O)C(C#N)c2nc3ccccc3nc2N2CC(C)OC(C)C2)cc1C (stereo unspecified),EC50,[1],4.67 µM (inconclusive)
same,EC50,[2],26.1 µM (inconclusive)
COc1ccc(-n2c(=O)c3c4c(sc3n(CC(N)=O)c2=O)CCCCC4)cc1,EC50,[3],> 260 µM (inactive)
O=c1[nH]c(=O)n([C@H]2C[C@H](O)[C@H](CO)O2)cc1/C=C\Br,AC50,Cytochrome P450 1A2,31.6 µM (inconclusive)
same,AC50,Cytochrome P450 3A4,20 µM (inconclusive)
CC(C)(C)OC(=O)N1CSC[C@H]1C(=O)NC[C@H](CC(=O)O)c1ccc(Cl)cc1,EC50,[3],> 260 µM (inactive)
COc1cccc(N/C(SCc2cccc([N+](=O)[O-])c2)=C(/C#N)C(=O)NCc2cccs2)c1,EC50,[3],> 260 µM (inactive)
Cc1cccc(C2C3=C(CCCC3=O)N=C3c4ccccc4C(=O)C32)c1 (stereo unspecified),EC50,[3],26.1 µM (active)
COc1ccccc1C(=O)CSc1nnc(-c2ccco2)o1,EC50,[3],65 µM (active)
O=C(NC1CC1)c1cccc(Nc2ccc(-c3ccc4c(c3)OCCO4)nn2)c1,EC50,H4,52.2 µM (active)
CN(C)C(=O)c1ccc(-c2cc(NCc3cccnc3)ncn2)cc1,AC50,Cytochrome P450 1A2,20 µM (inconclusive)
Cc1ccc(-c2nc3ccccc3[nH]2)cc1NC(=O)c1ccc2c(c1)OCO2,EC50,[3],70.2 µM (active)
COCC1C2CC[C@H]3C(OCc4ccc(OC)cc4)OC[C@]4(C)[C@H]3C2=C(CN4C(=O)OC(C)(C)C)[C@H](C)C1COC (stereo partly specified),AC50,Cytochrome P450 1A2,15.8 µM (inconclusive)
same,AC50,Cytochrome P450 2C9,15.8 µM (inconclusive)
O=C1NC(=O)N(CCc2ccccc2)C(=O)/C1=C/NNC(=O)c1ccccc1,EC50,[1],40.2 µM (active)
same,EC50,[2],> 150 µM (not active)
Cc1ccc(C)c(NC2CCCCC2NS(=O)(=O)c2ccccc2)c1 (stereo unspecified),EC50,[3],> 260 µM (inactive)
CC1(OC(=O)c2ccco2)C(=O)C=C2C=C(c3ccsc3)OC=C2C1=O (stereo unspecified),EC50,[1],> 300 µM (not active)
same,EC50,[2],23.1 µM (active)
CCCNC(=O)NC(=O)CSc1cccc(C(F)(F)F)c1,EC50,[3],> 260 µM (inactive)
CCN(CC)C(=O)CNc1ccc(C(F)(F)F)cc1[N+](=O)[O-],EC50,[1],40 µM (inconclusive)
same,EC50,[2],> 300 µM (not active)
CCOc1ccc(-c2nn(-c3ccccc3)cc2/C=C(\C#N)S(=O)(=O)c2ccccc2)cc1C,AC50,Cytochrome P450 3A4,11.2 µM (inconclusive)
same,AC50,Cytochrome P450 2C9,10 µM (inconclusive)
O=c1nc(SCc2cccc([N+](=O)[O-])c2)[nH]c2nc[nH]c12,AC50,Cytochrome P450 2C19,inconclusive
same,AC50,Cytochrome P450 3A4,3.16 µM (inconclusive)
CCC(C)(C)NC(=O)c1ccc2c(c1)N(CC(=O)OC)C(=O)C(C)(C)O2,AC50,Cytochrome P450 2C19; read-out: AC50,20 µM (inconclusive)
same,AC50,Cytochrome P450 1A2,0.158 µM (inconclusive)
NC(=NO)C1COc2ccccc2O1 (stereo unspecified),AC50,Cytochrome P450 2C19; read-out: AC50,11.2 µM (inconclusive)
same,AC50,Cytochrome P450 1A2,14.1 µM (inconclusive)
same,AC50,Cytochrome P450 2C9,2.51 µM (inconclusive)
CCCNS(=O)(=O)c1ccc(CCC(=O)NCc2ccc3c(c2)OCO3)cc1,EC50,[1],> 300 µM (not active)
same,EC50,[2],> 300 µM (not active)
CC(C)(O)C#Cc1ccc(C(=O)NCc2cccs2)s1,AC50,Cytochrome P450 2C19; read-out: AC50,17.8 µM (inconclusive)
same,AC50,Cytochrome P450 3A4,28.2 µM (inconclusive)
CCc1nc(O)c(C#N)c2c1CSC(C)(C)C2,EC50,[3],> 260 µM (inactive)
COc1cccc(-c2nc(C[S+]([O-])CC(=O)N3CCC4(CC3)OCCO4)c(C)o2)c1 (stereo unspecified),AC50,Cytochrome P450 2C19; read-out: AC50,14.1 µM (inconclusive)
same,AC50,Cytochrome P450 1A2,25.1 µM (inconclusive)
same,AC50,Cytochrome P450 3A4,12.6 µM (inconclusive)
same,AC50,Cytochrome P450 2C9,31.6 µM (inconclusive)
Cc1ccc(/C=C2\C(=O)NC(=S)N(c3ccc(F)cc3)C2=O)o1,EC50,[1],> 300 µM (not active)
same,EC50,[2],43.9 µM (active)
COc1ccc(-n2cnnc2SCC(=O)N(C)C2CCS(=O)(=O)C2)cc1 (stereo unspecified),EC50,[3],> 260 µM (inactive)
C/C=C(/C)C(=O)Nc1cccc(C2=NOC3(C2)C[C@@H](C(N)=O)N(C(=O)CC)C3)c1 (stereo partly specified),EC50,[3],> 260 µM (inactive)
Nc1ncnc2c1CCC2,EC50,[3],> 260 µM (inactive)
COc1cccc(N2CCN(S(=O)(=O)c3ccc(-c4coc(C)n4)cc3)CC2)c1,EC50,[3],> 260 µM (inactive)
O=C(Nc1cccc(C(F)(F)F)c1)c1n[nH]c(Cn2cncn2)n1,AC50,Cytochrome P450 2C19; read-out: AC50,28.2 µM (inconclusive)
same,AC50,Cytochrome P450 3A4,25.1 µM (inconclusive)
COc1ccccc1N1CCN(c2nc(-c3ccccc3)cc(C(F)(F)F)n2)CC1,AC50,Cytochrome P450 1A2,0.631 µM (inconclusive)
CCN1C(=O)/C(=C\c2c[nH]c3ccccc23)S/C1=N\c1ccc(C)cc1,AC50,Cytochrome P450 1A2,6.31 µM (inconclusive)
CCN(CC)c1ccc(/C=c2/sc3nnc(-c4ccccc4C)n3c2=O)cc1,EC50,[1],> 300 µM (not active)
same,EC50,[2],> 300 µM (inconclusive)
C[C@@H]1c2ccccc2Cn2cc3c(c21)C(=O)c1cccc(O[P@@](=O)(O)OCc2ccccc2)c1C3=O,AC50,Cytochrome P450 1A2,3.16 µM (inconclusive)
CC(C)(S)[C@H](N)C(=O)O,AC50,Cytochrome P450 1A2,6.31 µM (inconclusive)
ClCC1CS/C(=N\C23CC4CC(CC(C4)C2)C3)O1 (stereo unspecified),EC50,[3],> 260 µM (inactive)
Cn1c(CN2CCN(c3ccc(Cl)cc3)CC2)nc2ccccc21,EC50,[3],> 260 µM (inactive)
O=C(O[C@@H]1Cc2c(O)cc(O)cc2O[C@@H]1c1cc(O)c(O)c(O)c1)c1cc(O)c(O)c(O)c1 [EPIGALOCATECHIN GALLATE],EC50,[1],5.89 µM (inconclusive)
same,EC50,[2],0.727 µM (active)
Clc1cncc(N2CCNCC2)n1 [MK-212],AC50,Cytochrome P450 2C19; read-out: AC50,6.31 µM (inconclusive)
same,AC50,Cytochrome P450 3A4,15.8 µM (inconclusive)
"COc1cc(OC)c(C(=O)CCCCN2CCC3(CC2)NC(=O)NC3=O)cc1NS(=O)(=O)c1ccc(C(F)(F)F)cc1 [RS-102,221]",AC50,Cytochrome P450 3A4,7.94 µM (inconclusive)

# Source: ChEMBL document CHEMBL1201862, “PubChem BioAssay data set” (2004)
